As a reminder, the viability, T/C is the result in the treated group divided by that in the control group, in per cent. For orientation: IC50 means the midpoint of a concentration-inhibition curve.

Values joined by “and” are separate entries in the source; they are usually repeats but may differ in a detail not shown here. Equal entries are not always repeated.

The text below walks through data of PubChem BioAssay AID2060359 (Molecular Pharmacology Branch, DTP, NCI, 2025).

For the experiment, the system named is 276233-004-R-J1-PDC spheroids with HUVEC/MSC, viability. Description: Anticancer human tumor 276233-004-R-J1-PDC patient-derived colon adenocarcinoma cell line growth inhibition [TAK]. Conditions: for viability, T/C: stronger effect = lower value. The source says:
Combinatorial screen of targeted agents with TAK-243 and ipatasertib in multi-cell type tumor spheroids
A high-throughput screen of multi-cell type tumor spheroids was designed to identify active combinations of targeted small molecules and TAK-243 or ipatasertib. Complex spheroids include a stromal component modeled by human endothelial cells (HUVEC) and fibroblasts modeled by human mesenchymal stem cells (MSCs). The concentration ranges selected for each drug and investigational agent were based upon clinically achievable concentrations if the clinical Cmax of the agent was known.
Compounds. The drugs and investigational agents: TAK-243 (785004), ipatasertib (767898), everolimus (733504), selumetinib (741078), bortezomib (756655), trametinib (758246), ixazomib (758254), vemurafenib (761431), dabrafenib (764134), sapanisertib (764658), alpelisib (765974), and copanlisib (816437), were obtained from the National Cancer Institute (NCI) Developmental Therapeutics Program Chemical Repository. The FDA-approved anticancer drug set is available from the NCI Developmental Therapeutics Program. […] The stock solutions were prepared in dimethyl sulfoxide (DMSO, Sigma-Aldrich, St. Louis, MO, cat. D2650) at 800-fold the tested concentration and stored at -70 degrees C prior to their use. All drugs and investigational agents were tested over a range starting from a high concentration at or near the clinical Cmax and decreasing in half-log increments. If the clinical Cmax for an agent had not been determined, the highest concentration tested was 10 microM.
NCI60 Cell Culture. NCI60 cell lines were obtained from the NCI Developmental Therapeutics Program Tumor Repository. For each lot of cells, the Repository performed Applied Biosystems AmpFLSTR Identifiler testing with PCR amplification to confirm consistency with the published Identifier STR profile for each cell line. Cells were kept in continuous culture for no more than 20 passages. The optimal seeding densities for each of the cell lines at each time point assessed were determined prior to performing the concentration response studies. Briefly, the NCI60 human tumor lines were grown as monolayers in RPMI 1640 medium supplemented with 10% FBS and 2 mmol/L L-glutamine.
An additional 2 lines were from the NCI60 cell line panel including melanomas, MALME-3M and SK-MEL-2. Pooled donor human umbilical vein endothelial cells (HUVEC, Lonza, cat. CC-2519) and human mesenchymal stem cells (hMSC, Lonza, cat. PT-2501) were purchased from Lonza (Walkersville, MD).
PDMR cell lines were grown in complete medium (DC medium): Dulbecco's modified Eagle's medium (DMEM)/F12 supplemented with 5% fetal bovine serum (FBS), 2 mM L-glutamine, 100 U/mL penicillin and 100 µg/ml streptomycin, 0.4 µg/ml hydrocortisone, 10 ng/ml epidermal growth factor (EGF) recombinant human protein, 24 µg/mL adenine, and 0.1 mg/mL primocin. During culture from frozen stock vials, PDMR cells were cultured in the same medium containing 10 µM Y-27632 (see Table 3). The PDCs were cultured in complete DMEM/F12 media without 10 microM Y-27632 dihydrochloride for at least two passages prior to the screen. The pooled donor HUVEC and hMSC were cultured in endothelial cell growth medium 2 (PromoCell, Heidelberg, Germany, cat. C-22011) and mesenchymal stem cell growth medium 2 (PromoCell, cat. C-28009), respectively. For all experiments, HUVEC and hMSC were used at passages </=5.
For the pre-screen, cell seeding densities were determined from a titration spanning the range from 5,000 to 313 cells per well. The mct-spheroids including 60% malignant cells, 25% HUVEC and 15% MSC dispensed as a mixture into U-bottom Ultra-Low Attachment 384-well plates (Corning, NY)
High-throughput Drug Combination Screening.
Prior to their inoculation into 384-well plates, malignant cells, HUVEC, and hMSC were removed from T flasks using TrypLE express (Thermo Fisher Scientific, cat. 12605036) and harvested by centrifugation for 5 min at 233 x g. […]

[1] abbreviates: curve of first compound, second compound 0.3 µM.
Where [2] appears, read: curve of first compound, second compound 0.949 µM.
The mark [3] stands for this setting: curve of first compound, second compound 3 µM.
Setting [4] is: curve of first compound, second compound 9.49 µM.
[5] abbreviates: curve of first compound, second compound 30 µM.
The mark [6] stands for this setting: second compound 0.3 µM, first compound 0.0316 µM.
[7] abbreviates: second compound 0.3 µM, first compound 0.1 µM.
The mark [8] stands for this setting: second compound 0.949 µM, first compound 0.0316 µM.
Where [9] appears, read: second compound 0.949 µM, first compound 0.1 µM.
Setting [10] is: second compound 3 µM, first compound 0.0316 µM.
The mark [11] stands for this setting: second compound 3 µM, first compound 0.1 µM.
Where [12] appears, read: second compound 9.49 µM, first compound 0.0316 µM.
[13] abbreviates: second compound 9.49 µM, first compound 0.1 µM.
Where [14] appears, read: second compound 30 µM, first compound 0.0316 µM.
[15] abbreviates: second compound 30 µM, first compound 0.1 µM.
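Note: spheroids exposed to drugs for seven days before the viability read.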

`COc1c(OCCCN2CCOCC2)ccc2c3n(c(=NC(=O)c4cnc(N)nc4)nc12)CCN3`: the viability, T/C is 82.5% and 97.5% (compound 0.00316 µM); 64.3% and 80.6% (compound 0.01 µM); 55.6% and 59.9% (compound 0.0316 µM); 50.8% and 57.9% (compound 0.1 µM); 43.1% and 47.6% (compound 0.316 µM); 47.2% and 63.4% (compound 1 µM).

Regarding `CC(C)CC(NC(=O)C(Cc1ccccc1)NC(=O)c1cnccn1)B(O)O` (stereo not given), the viability, T/C (compound 31.6 pM) was 107% and 98.8%; the viability, T/C (compound 0.0001 µM) is 88.1% and 105%; the viability, T/C (compound 0.000316 µM) is 97.6% and 93.5%; the viability, T/C (compound 0.001 µM) was 91.4% and 106%; the viability, T/C (compound 0.00316 µM) is 89.8% and 112%; the viability, T/C (compound 0.01 µM) is 12.6% and 10%. Moreover, the IC50 (curve of compound) was 5.72 nM and 6.1 nM.

Regarding `COC1CC2CCC(C)C(O)(O2)C(=O)C(=O)N2CCCCC2C(=O)OC(C(C)CC2CCC(OCCO)C(OC)C2)CC(=O)C(C)C=C(C)C(O)C(OC)C(=O)C(C)CC(C)C=CC=CC=C1C` (stereo not given), the viability, T/C is 107% and 100% (compound 0.000316 µM); 94.7% and 93.2% (compound 0.001 µM); 83.6% and 81.6% (compound 0.00316 µM); 78.3% and 67.6% (compound 0.01 µM); 77.4% and 80.3% (compound 0.0316 µM); 66.3% and 64.1% (compound 0.1 µM). Besides, the half-inhibitory concentration (IC50) (curve of compound) is over 100 nM.

As for `CC(C)(C)c1nc(-c2cccc(NS(=O)(=O)c3c(F)cccc3F)c2F)c(-c2ccnc(N)n2)s1` + CC(C)NCC(C(=O)N1CCN(c2ncnc3c2C(C)CC3O)CC1)c1ccc(Cl)cc1, the IC50 under setting [1] is over 10000 nM; the 50% inhibitory concentration (IC50) under setting [2] was over 10000 nM; the IC50 under setting [3] is over 10000 nM; the IC50 under setting [4] is over 10000 nM; the IC50 under setting [5] was over 10000 nM. Also, the viability, T/C by setting is: under setting [6], 109%; under setting [7], 92.8%; (second compound 0.3 µM, first compound 0.316 µM) 110%; (second compound 0.3 µM, first compound 1 µM) 90.7%; (second compound 0.3 µM, first compound 3.16 µM) 65.1%; (second compound 0.3 µM, first compound 10 µM) 82.6%. Besides, the viability, T/C runs as follows: under setting [8], 101%; under setting [9], 96.4%; (second compound 0.949 µM, first compound 0.316 µM) 86.8%; (second compound 0.949 µM, first compound 1 µM) 84.4%; (second compound 0.949 µM, first compound 3.16 µM) 73.8%; (second compound 0.949 µM, first compound 10 µM) 71.8%. Moreover, the viability, T/C under setting [10] was 80.6%; the viability, T/C under setting [11] was 78.3%; the viability, T/C (second compound 3 µM, first compound 0.316 µM) is 91.1%; the viability, T/C (second compound 3 µM, first compound 1 µM) was 61.1%; the viability, T/C (second compound 3 µM, first compound 3.16 µM) is 63.5%; the viability, T/C (second compound 3 µM, first compound 10 µM) was 65.5%. Moreover, the viability, T/C is, setting by setting: under setting [12], 73.2%; under setting [13], 78.8%; (second compound 9.49 µM, first compound 0.316 µM) 68.2%; (second compound 9.49 µM, first compound 1 µM) 64.7%; (second compound 9.49 µM, first compound 3.16 µM) 83.1%; (second compound 9.49 µM, first compound 10 µM) 57%. Further, the viability, T/C by setting is: under setting [14], 61.9%; under setting [15], 73.8%; (second compound 30 µM, first compound 0.316 µM) 64.6%; (second compound 30 µM, first compound 1 µM) 70.1%; (second compound 30 µM, first compound 3.16 µM) 67.5%; (second compound 30 µM, first compound 10 µM) 75.3%.

As for `CC(C)CC(NC(=O)CNC(=O)c1cc(Cl)ccc1Cl)B1OC(=O)CC(CC(=O)O)(C(=O)O)O1` (stereo not given) + CC(C)NCC(C(=O)N1CCN(c2ncnc3c2C(C)CC3O)CC1)c1ccc(Cl)cc1, the IC50 under setting [1] was 53.9 nM; the IC50 under setting [2] came to 52.3 nM; the IC50 under setting [3] is 42.1 nM; the IC50 under setting [4] was determined as 31.7 nM; the IC50 under setting [5] was found to be 17.5 nM. In addition, the viability, T/C is 112% (second compound 0.3 µM, first compound 0.000316 µM); 103% (second compound 0.3 µM, first compound 0.001 µM); 102% (second compound 0.3 µM, first compound 0.00316 µM); 106% (second compound 0.3 µM, first compound 0.01 µM); 81.2% under setting [6]; 14.1% under setting [7]. The viability, T/C was 112% (second compound 0.949 µM, first compound 0.000316 µM); 95.7% (second compound 0.949 µM, first compound 0.001 µM); 101% (second compound 0.949 µM, first compound 0.00316 µM); 91.3% (second compound 0.949 µM, first compound 0.01 µM); 82.1% under setting [8]; 12% under setting [9]. The viability, T/C (second compound 3 µM, first compound 0.000316 µM) was 90.4%; the viability, T/C (second compound 3 µM, first compound 0.001 µM) is 89.6%; the viability, T/C (second compound 3 µM, first compound 0.00316 µM) was 84.3%; the viability, T/C (second compound 3 µM, first compound 0.01 µM) is 79.4%; the viability, T/C under setting [10] is 64.4%; the viability, T/C under setting [11] was 10.9%. Further, the viability, T/C runs as follows: (second compound 9.49 µM, first compound 0.000316 µM) 74.6%; (second compound 9.49 µM, first compound 0.001 µM) 84.8%; (second compound 9.49 µM, first compound 0.00316 µM) 65.1%; (second compound 9.49 µM, first compound 0.01 µM) 71.7%; under setting [12], 49.2%; under setting [13], 13.5%. For the same compound, the viability, T/C was 68.2% (second compound 30 µM, first compound 0.000316 µM); 84.8% (second compound 30 µM, first compound 0.001 µM); 60.5% (second compound 30 µM, first compound 0.00316 µM); 63.7% (second compound 30 µM, first compound 0.01 µM); 38.3% under setting [14]; 17.2% under setting [15].
